Test results taken from patent US4363922A, “Esters of antibiotic nodusmicin” (priority 1981, dated 1982).
≈ marks a conversion by molar mass, not a printed value. Read-outs that look alike come from different tables or passages of the source.

Legend:
S.lutea UC-130 = experiment: Dipped disc agar diffusion assay, S. lutea; settings: for zone of inhibition at 1000 µg/mL: Micrococcus luteus, UC130, 16 h
S.aureus UC-76 = experiment: Minimum Inhibitory Concentration, microplate broth-dilution, S. aureus UC-76; settings: for MIC: Staphylococcus aureus; for MIC S.aureus UC-76: BHI broth
S.aureus UC-570 = experiment: Minimum Inhibitory Concentration, microplate broth-dilution, S. aureus UC-570; settings: for MIC: Staphylococcus aureus
S.aureus UC-746 = experiment: Minimum Inhibitory Concentration, microplate broth-dilution, S. aureus UC-746; settings: for MIC: Staphylococcus aureus
S.pyrogenes UC-152 = experiment: Minimum Inhibitory Concentration, microplate broth-dilution, S. pyrogenes UC-152; settings: for MIC S.pyrogenes UC-152: BHI broth
S.aureus UC 80 = experiment: Dipped disc agar diffusion assay, S. aureus; settings: for zone of inhibition at 1000 µg/mL: Staphylococcus aureus, UC80, 16 h
[1] = Solubility noted in the MIC determination; settings: BHI broth
Mycobacterium avium = experiment: Antibiotic activity against Mycobacterium avium; assay type: cell-based
S. lutea = experiment: Antibiotic activity against S. lutea; assay type: cell-based
K. pneumoniae = experiment: Antibiotic activity against K. pneumoniae; assay type: cell-based
B. fragilis = experiment: Antibiotic activity against B. fragilis; assay type: cell-based
C. perfringens = assay type: cell-based
[2] = read-out: Agar Diffusion 1 mg./ml. S.lutea UC-130 (inhibition zone)
[3] = UC76, read-out: MIC S.aureus UC-76
[4] = UC570, read-out: MIC S.aureus UC-570
[5] = UC746, read-out: MIC S.aureus UC-746
[6] = read-out: MIC S.pyrogenes UC-152
[7] = read-out: Agar Diffusion 1 mg./ml. S.aureus UC 80 (inhibition zone), 1 mg./ml., 12.7 mm paper disc, 16 hours
[8] = UC76, read-out: MIC S.aureus UC-76, BHI broth, sensitive strain
[9] = UC570, read-out: MIC S.aureus UC-570, BHI broth, sensitive strain
[10] = UC746, read-out: MIC S.aureus UC-746, BHI broth, strain resistant to tetracycline
[11] = read-out: MIC S.pyrogenes UC-152, BHI broth
[12] = read-out: Agar Diffusion 1 mg./ml. S.aureus UC 80 (inhibition zone)
[13] = read-out: zone of inhibition, S. lutea

Compound	zone of inhibition at 1000 µg/mL (S.lutea UC-130; [2]) [mm]	MIC (S.aureus UC-76; [3]) [µg/mL]	MIC (S.aureus UC-570; [4]) [µg/mL]	MIC (S.aureus UC-746; [5]) [µg/mL]	MIC (S.pyrogenes UC-152; [6]) [µg/mL]	MIC (S.pyrogenes UC-152; [11]) [µg/mL]	also measured
COC1CC2C=CC3C4OC2(C(C)=CC(C)C(C(C)O)OC1=O)C3C(OC(=O)c1ccco1)C(C)C4O (stereo not shown) [U-60,905, 11-O--Furoyl-]	17	500 (≈ 968 µM)	500 (≈ 968 µM)	500 (≈ 968 µM)	> 500		
COC1CC2C=CC3C4OC2(C(C)=CC(C)C(C(C)O)OC1=O)C3C(O)C(C)C4OC(=O)c1ccccn1 (stereo not shown) [U-60,909, 9-O--Picolinoyl-]	31	> 250	> 250	> 250	> 250		
COC1CC2C=CC3C4OC2(C(C)=CC(C)C(C(C)OC(=O)c2ccc[nH]2)OC1=O)C3C(O)C(C)C4O (stereo not shown) [U-60,907, 18-O--Pyrrole-2-carbonyl]	33					> 250	zone of inhibition at 1000 µg/mL (S.aureus UC 80; [7]): 27 mm; MIC (S.aureus UC-76; [8]): 7.8 µg/mL (≈ 15.1 µM); MIC (S.aureus UC-570; [9]): 3.9 µg/mL (≈ 7.56 µM); MIC (S.aureus UC-746; [10]): 15.6 µg/mL (≈ 30.3 µM)
COC1CC2C=CC3C4OC2(C(C)=CC(C)C(C(C)O)OC1=O)C3C(O)C(C)C4OC(=O)c1ccc(C)[nH]1 (stereo not shown) [U-61,265, 9-O--5-Methylpyrrole-2-carbonyl]	30	31.2 (≈ 58.9 µM)	31.2 (≈ 58.9 µM)	31.2 (≈ 58.9 µM)	125 (≈ 236 µM)		zone of inhibition at 1000 µg/mL (S.aureus UC 80; [12]): 20 mm
COC1CC2C=CC3C4OC2(C(C)=CC(C)C(C(C)O)OC1=O)C3C(O)C(C)C4OC(=O)c1cnccn1 (stereo not shown) [U-61,264, 9-O--Pyrrazine-2-carbonyl]	27	> 125	> 125	> 125	> 125		
COC1CC2C=CC3C4OC2(C(C)=CC(C)C(C(C)O)OC1=O)C3C(O)C(C)C4OC(=O)c1cc([N+](=O)[O-])c[nH]1 (stereo not shown) [U-61,462, 9-O--4-Nitropyrrole-2-carbonyl-]	36					125 (≈ 223 µM)	zone of inhibition at 1000 µg/mL (S.aureus UC 80; [7]): 20 mm; MIC (S.aureus UC-76; [8]): 15.6 µg/mL (≈ 27.8 µM); MIC (S.aureus UC-570; [9]): 31.2 µg/mL (≈ 55.7 µM); MIC (S.aureus UC-746; [10]): 31.2 µg/mL (≈ 55.7 µM)
COC1CC2C=CC3C4OC2(C(C)=CC(C)C(C(C)O)OC1=O)C3C(O)C(C)C4OC(=O)c1ccccc1 (stereo not shown) [9-O--benzoyl-, 9-O-benzoyl-nodusmicin]	30						insoluble [1]: insoluble; zone of inhibition at 1000 µg/mL (S.lutea UC-130; [13]): 30 mm
9-O--3-Furoyl- [U-61,461]							Agar Diffusion 1 mg./ml. S.lutea UC-130 (inhibition zone) (S.lutea UC-130; 1 mg./ml., 12.7 mm paper disc, 16 hours): 41; Agar Diffusion 1 mg./ml. S.aureus UC 80 (inhibition zone) (S.aureus UC 80; 12.7 mm paper disc, 16 hours): 35; MIC S.aureus UC-76 (S.aureus UC-76; sensitive strain): 0.50 µg/mL; MIC S.aureus UC-570 (S.aureus UC-570; BHI broth, sensitive strain): 0.25 µg/mL; MIC S.aureus UC-746 (S.aureus UC-746; BHI broth, strain resistant to tetracycline): 0.50 µg/mL; MIC S.pyrogenes UC-152 (S.pyrogenes UC-152): 2.50 µg/mL
COC1CC2C=CC3C4OC2(C(C)=CC(C)C(C(C)OC(=O)c2ccc[nH]2)OC1=O)C3C(O)C(C)C4OC(=O)c1ccc[nH]1 (stereo not shown) [U-60,908, 9,18-O--Dipyrrole-2-carbonyl-]	29						insoluble [1]: insoluble; zone of inhibition at 1000 µg/mL (S.aureus UC 80; [7]): 24 mm
COC1CC2C=CC3C4OC2(C(C)=CC(C)C(C(C)O)OC1=O)C3C(O)C(C)C4OC(=O)c1ccsc1 (stereo not shown) [U-60,910, 9-O-Thiophene-3-carbonyl-nodusmicin]	40	0.5 (≈ 0.939 µM)	0.25 (≈ 0.469 µM)	0.5 (≈ 0.939 µM)		125 (≈ 235 µM)	zone of inhibition at 1000 µg/mL (S.lutea UC-130; [13]): 40 mm; zone of inhibition at 1000 µg/mL (S.aureus UC 80; [7]): 35 mm; zone of inhibition at 1000 µg/mL (S.aureus UC 80; read-out: zone of inhibition, S. aureus, 1 mg./ml., 0.5 inch disc, agar tray, strain not stated): 35 mm
COC1CC2C=CC3C4OC2(C(C)=CC(C)C(C(C)O)OC1=O)C3C(O)C(C)C4OC(=O)[C@@H]1CCCN1 (stereo partly drawn) [U-60,933, 9-O--L-Pyrolyl-]	38	31.2 (≈ 60 µM)	62.5 (≈ 120 µM)	62.5 (≈ 120 µM)	> 250		zone of inhibition at 1000 µg/mL (S.aureus UC 80; [12]): 16 mm
COC1CC2C=CC3C4OC2(C(C)=CC(C)C(C(C)O)OC1=O)C3C(O)C(C)C4OC(=O)c1ccco1 (stereo not shown) [U-60,898, 9-O--Furoyl-]	40	7.8 (≈ 15.1 µM)	7.8 (≈ 15.1 µM)	7.8 (≈ 15.1 µM)	> 250		zone of inhibition at 1000 µg/mL (S.aureus UC 80; [12]): 30 mm
COC1CC2C=CC3C4OC2(C(C)=CC(C)C(C(C)O)OC1=O)C3C(O)C(C)C4OC(=O)c1ccc[nH]1 (stereo not shown) [U-59,760, 9-O-pyrrole-2-carbonyl ester of nodusmicin, reference compound]	44					> 125	Agar Diffusion 1 mg./ml. S.aureus UC 80 (inhibition zone) (S.aureus UC 80; 12.7 mm paper disc, 16 hours): 38; zone of inhibition at 1000 µg/mL (S.aureus UC 80; [7]): 37 mm; MIC S.aureus UC-76 (S.aureus UC-76; sensitive strain): 0.125 µg/mL (≈ 0.242 µM); MIC (S.aureus UC-76; [8]): 0.0625 µg/mL (≈ 0.121 µM); MIC S.pyrogenes UC-152 (S.pyrogenes UC-152): 62.5 µg/mL (≈ 121 µM)
COC1CC2C=CC3C4OC2(C(C)=CC(C)C(C(C)O)OC1=O)C3C(O)C(C)C4OC(=O)c1ccc(Br)o1 (stereo not shown) [U-61,463, 9-O--5-Bromofuroyl-]	35						zone of inhibition at 1000 µg/mL (S.aureus UC 80; [12]): 0 mm
COC1CC2C=CC3C4OC2(C(C)=CC(C)C(C(C)O)OC1=O)C3C(O)C(C)C4OC(=O)c1cccs1 (stereo not shown) [U-60,989, 9-O--Thiophene-2-carbonyl-]	41	3.9 (≈ 7.32 µM)	3.9 (≈ 7.32 µM)	3.9 (≈ 7.32 µM)	125 (≈ 235 µM)		zone of inhibition at 1000 µg/mL (S.aureus UC 80; [12]): 27 mm
COC1CC2C=CC3C4OC2(C(C)=CC(C)C(C(C)O)OC1=O)C3C(O)C(C)C4OC(=O)c1cc2ccccc2[nH]1 (stereo not shown) [U-61,273, 9-O--Indole-2-carbonyl-]	22						insoluble [1]: insoluble
COC1CC2C=CC3C4OC2(C(C)=CC(C)C(C(C)O)OC1=O)C3C(O)C(C)C4OC(=O)c1cccn1C (stereo not shown) [U-60,988, 9-O--N--Methylpyrrole-2-carbonyl-]	24					125 (≈ 236 µM)	MIC (S.aureus UC-76; [8]): 250 µg/mL (≈ 472 µM); MIC (S.aureus UC-570; [9]): > 250 µg/mL; MIC (S.aureus UC-746; [10]): 250 µg/mL (≈ 472 µM)
COC1CC2C=CC3C4OC2(C(C)=CC(C)C(C(C)O)OC1=O)C3C(O)C(C)C4OC(=O)c1ccc([N+](=O)[O-])o1 (stereo not shown) [U-60,990, 9-O--5-Nitrofuroyl]	33	31.2 (≈ 55.6 µM)	31.2 (≈ 55.6 µM)	62.5 (≈ 111 µM)	125 (≈ 223 µM)		
COC1CC2C=CC3C4OC2(C(C)=CC(C)C(C(C)O)OC1=O)C3C(O)C(C)C4OC(=O)c1cccnc1 (stereo not shown) [U-60,906, 9-O--Nicotinoyl-]	32	250 (≈ 474 µM)	250 (≈ 474 µM)	250 (≈ 474 µM)	2500 (≈ 4740 µM)		
COC1CC2C=CC3C4OC2(C(C)=CC(C)C(C(C)O)OC1=O)C3C(O)C(C)C4OC(=O)c1ccncc1 (stereo not shown) [U-60,925, 9-O--Isonicotinoyl]	38	250 (≈ 474 µM)	250 (≈ 474 µM)	250 (≈ 474 µM)	> 250		
COC1CC2C=CC3C4OC2(C(C)=CC(C)C(C(C)O)OC1=O)C3C(O)C(C)C4OC(=O)c1ccc([N+](=O)[O-])[nH]1 (stereo not shown) [U-61,427, 9-O--5-Nitropyrrole-2-carbonyl-]	32					250 (≈ 446 µM)	MIC (S.aureus UC-76; [8]): 125 µg/mL (≈ 223 µM); MIC (S.aureus UC-570; [9]): 250 µg/mL (≈ 446 µM); MIC (S.aureus UC-746; [10]): 125 µg/mL (≈ 223 µM)
COC1CC2C=CC3C4OC2(C(C)=CC(C)C(C(C)O)OC1=O)C3C(O)C(C)C4O (stereo not shown) [U-59,761, nodusmicin]	40					500 (≈ 1180 µM)	activity against Mycobacterium avium (Mycobacterium avium): active; activity against S. lutea (S. lutea): active; activity against K. pneumoniae (K. pneumoniae): active; activity against B. fragilis (B. fragilis): active; activity against C. perfringens (C. perfringens): active; MIC (S.aureus UC-76; [8]): 125 µg/mL (≈ 296 µM); MIC (S.aureus UC-570; [9]): 250 µg/mL (≈ 592 µM); MIC (S.aureus UC-746; [10]): 250 µg/mL (≈ 592 µM)
COC1CC2C=CC3C4OC2(C(C)=CC(C)C(C(C)OC(=O)c2ccccc2)OC1=O)C3C(O)C(C)C4O (stereo not shown) [18-O--benzoyl-, 18-O-benzoyl-nodusmicin]							insoluble [1]: insoluble
